The subject of one data set is interleukin 1α (IL-1α). Briefly: Inflammatory response, IL-1α release assay (ELISA) on reconstructed human epidermis. The format is cell-based. The settings on record: IL-1α level normalized to tissue viability, 24 hours. The text has this:
The 3D reconstructed human epidermis (RhE) used as test system in the study, is the SKINETHIC™ RHE model commercially available from the company EPISKIN SA. The SKINETHIC™ RHE model is obtained by tissue engineering from untransformed human keratinocytes previously obtained from human epidermis. The model is described in the OECD 439 guideline for in vitro skin irritation of chemical products.
The assay is based on topical application of the tested GA at different concentrations on reconstructed human epidermis (RHE SkinEthic™), followed by evaluation of: • Tissue viability, by MTT colorimetric test to determine the concentration of test product needed to produce the viability to 50% of control tissues (EC50). • SkinEthic™ RHE tissue inflammatory response, by interleukin 1α (IL-1α) release assay.
(§1) Prior to GA application, tissue inserts are transferred in 12-well plates prefilled with fresh maintenance medium. 60 µl/cm^2 of each GA solution is applied on top of epidermidis. After application, tissues are incubated for 24 hours at 37°C (±1 °C) and 5% ([…]) CO2.
At the end of the assay after 24 hours incubation period, the conditioned media underneath tissues are collected, aliquoted and stored at -20°C until IL-1α assay.
IL-1α is quantified using an Elisa kit (Quantikine Human IL-1α DLA50) according to the manufacturer's instructions. The optical densities are read at 450 nm.
IL-1α levels (pg/ml) are interpolated from the standard curve built with IL-1α standard provided with the Elisa kit. The mean of IL-1α release concentrations is calculated in each experimental group. For the comparative analysis, the IL-1α levels were normalized in function of tissue viability (MMT test). The values R (IL-1α/Viab%) ×100) have been calculated at different concentrations with the two GA and collected in the following Table 18: Table 18: IL-1α ratios.
A general note: ELISA stands for enzyme-linked immunosorbent assay.

A further data set concerns SKINETHIC™ RHE model. Briefly: Tissue viability, MTT assay on 3D reconstructed human epidermis after topical application. The class given is cell-based. Particulars: for Tissue viability / EC50: 24 hours; for Tissue viability: relative to untreated epidermis; for EC50 value / EC50: concentration reducing viability to 50% of control tissues; for EC50: probit-log regression. As for the experimental part:
(§2) The assay takes place in two steps: • Step 1: EC50 concentration finding assay is performed with one representative sample. • Step 2: determination of EC50 concentration values and IL-1α levels performed with both GA.
as §1
(§3) The tissue viability is measured with the MTT assay performed in 24 hours. The MTT assay is based on the reduction of 3-(4,5-Dimethylthiazol-2-yl)-2,5-Diphenyltetrazolium Bromide (MTT) into insoluble purple formazan crystals, by metabolically active cells in a mitochondria-dependant reaction catalysed by succinate dehydrogenase. The ability of cells to reduce MTT after exposure to GA, compared to the control (untreated epidermis), enables to deduce the relative toxicity of the applied GA. The optical density (OD) of formazan solution is proportional to the number of viable cells.
(§4) After incubation, tissues are rinsed with PBS and then transferred into 24-well plates pre-filled with MTT solution. After 120 minutes (±10 minutes) of incubation at 37°C (±1 °C), the tissues are transferred into 24-well plates containing DMSO for extraction of formazan. Then the plates are stored overnight at room temperature. At the end of the extraction period, 3 x 200 µl aliquots of formazan extracts are transferred into a 96-well flat bottom microtiter plate and the optical density is read at 570 nm in a microplate reader.
(§5) The optical densities of each replicate are corrected by substracting the mean OD value of blank measured in parallel. The mean from corrected OD values (ODcorr) as well as standard deviation are calculated in each experimental group.
(§6) From the mean ODcorr values, the relative tissue viability (% viab) is calculated as a percentage of the mean viability of the control (untreated epidermis): % viab (treated) = ((treated) ODcorr mean)/((Control ODcorr mean) × 100. [formula]
(§7) The graph represents the dose response curve of cells viability (% viab) versus the GA concentration (C). The EC50 value is calculated from the dose response curve, by using the probit-log regression model.
(In general: Tetrazolium dyes change colour on reduction, which living cells bring about.)

Assay in data set [1]: as above
The class given is cell-based. Particulars: human, 24 hours, relative to untreated epidermis. As for the experimental part:
as §2, §1, §3, §4, §5, §6, §7

A further data set has as its system skin. Put plainly: Usage test, panel questionnaire on skin quality. The class given is in vivo, human. The settings on record: between the 7th and the 14th day. From the text:
A panel of 60 women with mature skin ranging from normal to dry, were selected to apply to each half of the face, the two tested items: GA-METEX and GA-CONTROL. The panelists were asked about their feeling after 7 and 14 days of daily application. The questionnaire covered items: nourished skin, uniform skin, smooth skin, luminous skin, finer skin texture, firm skin.

With `O=C(O)CO` [GA-CONTROL, Glycolic acid], the entries for the “R (IL-1α/Viab%) ×100” value in the data set on interleukin 1α (IL-1α) (GA concentration 1.27%), in the data set on interleukin 1α (IL-1α) (GA concentration 1.69%) and with interleukin 1α (IL-1α) (GA concentration 2.25%) were 15.09, 35.33 and 75.07, respectively. For the same molecule, the Tissue viability was 62.1% in the data set on SKINETHIC™ RHE model (GA concentration 1.27%), 31.2% with SKINETHIC™ RHE model (GA concentration 1.69%), 10.5% with SKINETHIC™ RHE model (GA concentration 2.25%) and 3.4% in the data set on SKINETHIC™ RHE model (GA concentration 3%). Moreover, the EC50 value in the data set with SKINETHIC™ RHE model was 1.42%. This molecule also yielded an EC50 in the data set with SKINETHIC™ RHE model of 1.42 % p/v.

A word on the viability: it is the share of living cells, or the viability signal relative to a control. Read a high viability as better survival. In the case of `O=C(O)CO` [GA-METEX, Glycolic acid], the “R (IL-1α/Viab%) ×100” value in the data set with interleukin 1α (IL-1α) (GA concentration 1.27%) came out at 10.42; in the data set on interleukin 1α (IL-1α) (GA concentration 1.69%), 18.26; in the data set on interleukin 1α (IL-1α) (GA concentration 2.25%), 35.56. The Tissue viability with SKINETHIC™ RHE model (GA concentration 1.69%) is listed as 59,6%; in the data set on SKINETHIC™ RHE model (GA concentration 2.25%), 22.2%. Further, in the data set on SKINETHIC™ RHE model, the EC50 value is 1.70%. In the data set with SKINETHIC™ RHE model, this molecule came in with an EC50 of 1.70 % p/v. For the same molecule, in data set [1] (GA concentration 1.27%), the viability at 24 h, 1.27 % worked out at 74.9%. For the same molecule, the viability at 24 h, 3 % in data set [1] (GA concentration 3%) worked out at 3.5%. Further, in the data set on skin, the “user satisfaction, evolution” value is given as “significant increase in user satisfaction”.

The values are drawn from patent EP4631928A1, “METHOD OF PURIFICATION OF GLYCOLIC ACID, COMPOSITION AND USE THEREOF” (Metabolic Explorer, priority 2024, dated 2025).
